Consider 18 compounds from US8178548B2, “Anti-infective agents and uses thereof” (priority 2007, dated 2012).

Read-outs that look alike come from different tables or passages of the source. Bounds are passed on as bounds.

Assay [1] deals with genotype 1a-H77 subgenomic replicon cell line. The assay can be described thus: HCV Polymerase Replicon Assay, genotype 1a-H77 (luciferase reporter). It counts as cell-based. The following applies: Hepatitis C virus, 72 h, read-out: EC50 1a. A general note: A replicon is a self-replicating genome or part of one, used to study replication in cells.
Assay [2] addresses T1, HCV polymerase 1B (Δ21 NS5B, HCV Strain 1B BK) (Hepatitis C virus genotype 1b, UniProt P26663).
T1 construct: 20 to 50 nM Δ21 NS5B
The experiment in a line: biochemical. The method, then:
(§1) Either two-fold serial dilutions (fractional inhibition assay) or a narrower range of dilutions spanning the IC50 of the inhibitor (tight binding assay) of the inhibitors were incubated with 20 mM Tris-Cl pH 7.4, 2 mM MnCl2, 1 mM dithiothreitol, 1 mM ethylene diamine tetraacetic acid (EDTA), 60 to 125 μM GTP and 20 to 50 nM Δ21 NS5B (HCV Strain 1B (BK, Genbank accession number M58335, or H77, Genbank accession number AF011751)) for 15 min at room temperature. The reaction was initiated by the addition of 20 μM CTP, 20 μM ATP, 1 μM ^3H-UTP (10 mCi/umol), 5 nM template RNA and 0.1 U/μl RNase inhibitor (RNasin, Promega), and allowed to proceed for 2 to 4 h at room temperature. Reaction volume was 50 μl. The reaction was terminated by the addition of 1 volume of 4 mM spermine in 10 mM Tris-Cl pH 8.0, 1 mM EDTA. After incubation for at least 15 min at room temperature, the precipitated RNA was captured by filtering through a GF/B filter (Millipore) in a 96 well format. The filter plate was washed three times with 200 μl each of 2 mM spermine, 10 mM Tris-Cl pH 8.0, 1 mM EDTA, and 2 times with ethanol. After air-drying, 30 μl of Microscint 20 scintillation cocktail (Packard) was added to each well, and the retained cpm were determined by scintillation counting. […] Retained cpm were plotted vs. inhibitor concentration and fit to equation 1 using non-linear regression (ref. 1) to obtain the IC50 values: Retained cpm=A[sqrt{(IC50+It−Et)^2+4*IC50*Et}−(IC50+It−Et)]
(§2) Ref. Morrison, J. F. and S. R. Stone. 1985. Approaches to the study and analysis of the inhibition of enzymes by slow- and tight-binding inhibitors. Comments Mol. Cell. Biophys. 2: 347-368.
(§3) The sequence of the template RNA used was: 5′-[…] […] […] […] […] […] […] […] […] […] […] […] […] […] […] […] […]-3′ (SEQ ID NO:1).

The target of assay [3] is T2, HCV polymerase 1A (Δ21 NS5B, H77) (Hepatitis C virus genotype 1a, UniProt P27958).
T2 construct: 20 to 50 nM Δ21 NS5B
T2 sequence (P27958 2421-2990, stated change not applied): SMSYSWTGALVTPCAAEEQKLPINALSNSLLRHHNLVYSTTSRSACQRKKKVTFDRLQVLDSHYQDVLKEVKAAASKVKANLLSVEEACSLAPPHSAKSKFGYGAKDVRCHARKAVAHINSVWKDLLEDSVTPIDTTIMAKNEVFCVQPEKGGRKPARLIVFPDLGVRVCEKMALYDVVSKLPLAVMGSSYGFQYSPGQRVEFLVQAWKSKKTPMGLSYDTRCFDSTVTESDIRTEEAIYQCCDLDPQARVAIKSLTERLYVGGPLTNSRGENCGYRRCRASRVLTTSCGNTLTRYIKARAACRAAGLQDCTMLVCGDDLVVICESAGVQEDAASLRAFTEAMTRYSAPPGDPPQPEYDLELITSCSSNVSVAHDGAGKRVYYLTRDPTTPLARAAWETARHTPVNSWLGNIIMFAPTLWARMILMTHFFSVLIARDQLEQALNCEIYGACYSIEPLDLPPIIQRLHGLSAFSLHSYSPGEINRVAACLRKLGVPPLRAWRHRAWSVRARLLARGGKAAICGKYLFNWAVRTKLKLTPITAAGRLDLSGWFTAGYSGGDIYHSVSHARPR
The experiment in a line: biochemical. The method, then:
as §1, §2, §3

The test system of assay [4] is genotype 1b-Con1 subgenomic replicon cell line. The assay can be described thus: HCV Polymerase Replicon Assay, genotype 1b-Con1 (luciferase reporter). The class given is cell-based. The following applies: Hepatitis C virus, 72 h, read-out: EC50 1b.
The mark [5] stands for this setting: replicon 1a-H77, luciferase, three days.
Setting [6] is: replicon 1b-Con1, luciferase, three days.

T1 sequence (P26663 2420-2989, stated change not applied): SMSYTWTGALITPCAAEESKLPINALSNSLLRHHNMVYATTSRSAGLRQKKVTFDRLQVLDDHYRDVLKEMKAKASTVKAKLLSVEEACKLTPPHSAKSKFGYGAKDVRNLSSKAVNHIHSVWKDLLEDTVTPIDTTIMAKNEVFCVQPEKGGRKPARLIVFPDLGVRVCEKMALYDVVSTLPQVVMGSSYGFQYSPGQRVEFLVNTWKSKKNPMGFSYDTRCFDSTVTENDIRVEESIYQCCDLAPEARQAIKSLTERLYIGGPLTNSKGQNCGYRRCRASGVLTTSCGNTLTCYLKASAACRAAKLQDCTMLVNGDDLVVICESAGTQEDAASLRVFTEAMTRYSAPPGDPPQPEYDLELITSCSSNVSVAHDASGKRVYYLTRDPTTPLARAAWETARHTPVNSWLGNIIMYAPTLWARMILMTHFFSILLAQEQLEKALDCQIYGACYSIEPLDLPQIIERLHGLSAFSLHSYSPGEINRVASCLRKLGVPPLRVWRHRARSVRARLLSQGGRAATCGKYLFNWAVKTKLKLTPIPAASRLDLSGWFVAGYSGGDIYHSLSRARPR

For orientation: EC50 means the concentration needed to bring the measured effect to its halfway point. By IC50 is commonly meant the concentration at which inhibition is half-maximal. A higher IC50 goes with a need for much substance. In the case of `COc1c(/C=C/c2ccc(NS(C)(=O)=O)cc2-c2ncco2)cc(-n2ccc(=O)[nH]c2=O)cc1C(C)(C)C` [IB-L1-1.26, (E)-N-(4-(3-tert-butyl-5-(2,4-dioxo-3,4-dihydropyrimidin-1(2H)-yl)-2-methoxystyryl)-3-(oxazol-2-yl)phenyl)methanesulfonamide], the EC50 in assay [1] is 10 to 100 nM; in assay [4], < 10 nM. The 50% inhibitory concentration (IC50) in assay [2] and in assay [3] was 10 to 100 nM in each case.
On to `COc1c(/C=C/c2ccc(NS(C)(=O)=O)cc2)cc(-n2ccc(=O)[nH]c2=O)cc1-c1cccs1` [IB-L1-1.48, (E)-N-(4-(5-(2,4-dioxo-3,4-dihydropyrimidin-1(2H)-yl)-2-methoxy-3-(thiophen-2-yl)styryl)phenyl)methanesulfonamide], for which the EC50 in assay [1] (setting [5]) was 100 to 1000 nM; in assay [4] (setting [6]), < 10 nM. The IC50 in assay [2] and in assay [3] was 10 to 100 nM each time.
Consider `COc1c(/C=C/c2ccc(N)cc2)cc(N2CCC(=O)NC2=O)cc1C(C)(C)C` [IA-L1-1.13, (E)-1-(3-(4-aminostyryl)-5-tert-butyl-4-methoxyphenyl)dihydropyrimidine-2,4(1H,3H)-dione], for which the EC50 in assay [1] was > 1000 nM; in assay [4] it was 100 to 1000 nM. The half-inhibitory concentration (IC50) in assay [2] and in assay [3] was 100 to 1000 nM each time.
As for `COc1c(/C=C/c2ccc(NS(C)(=O)=O)cc2)cc(-n2ccc(=O)[nH]c2=O)cc1C(C)(C)CO` [IB-L1-1.45, (E)-N-(4-(5-(2,4-dioxo-3,4-dihydropyrimidin-1(2H)-yl)-3-(1-hydroxy-2-methylpropan-2-yl)-2-methoxystyryl)phenyl)methanesulfonamide], the EC50 is 10 to 100 nM in assay [1] (setting [5]) and < 10 nM in assay [4] (setting [6]). In addition, the values for the IC50 in assay [2] and in assay [3] were 10 to 100 nM and < 10 nM, respectively.
For `COc1c(/C=C/c2ccc(NS(C)(=O)=O)cc2CN2CCCC2)cc(-n2ccc(=O)[nH]c2=O)cc1C(C)(C)C` [IB-L1-1.33, N-(4-{(E)-2-[3-tert-Butyl-5-(2,4-dioxo-3,4-dihydro-2H-pyrimidin-1-yl)-2-methoxy-phenyl]-vinyl}-3-pyrrolidin-1-ylmethyl-phenyl)-methanesulfonamide], the EC50 lay in the range of 100 to 1000 nM in assay [1] and 10 to 100 nM in assay [4]. The IC50 in assay [2] and in assay [3] was 100 to 1000 nM throughout.
As to `COc1c(/C=C/c2ccc(NS(C)(=O)=O)c(F)c2)cc(-n2ccc(=O)[nH]c2=O)cc1C(C)(C)C` [IB-L1-1.5, (E)-N-(4-(3-tert-butyl-5-(2,4-dioxo-3,4-dihydropyrimidin-1(2H)-yl)-2-methoxystyryl)-2-fluorophenyl)methanesulfonamide], the EC50 is 10 to 100 nM in assay [1] and < 10 nM in assay [4]. For the same compound, the concentration for half-maximal inhibition (IC50) in assay [2] and in assay [3] was < 10 nM in each case.
As for `COc1c(/C=C/c2ccc(NS(C)(=O)=O)cc2)cc(N2CCC(=O)NC2=O)cc1C(C)(C)C` [IA-L1-1.9, (E)-N-(4-(3-tert-butyl-5-(2,4-dioxotetrahydropyrimidin-1(2H)-yl)-2-methoxystyryl)phenyl)methanesulfonamide], the concentration for a half-maximal effect (EC50) in assay [1] is 10 to 100 nM; in assay [4] it was < 10 nM. Further, the IC50 in assay [2] is 10 to 100 nM; in assay [3] it was < 10 nM.
For `COCCNC(=O)c1cc(NS(C)(=O)=O)ccc1/C=C/c1cc(-n2ccc(=O)[nH]c2=O)cc(C(C)(C)C)c1OC` [IB-L1-1.9, 2-{(E)-2-[3-tert-Butyl-5-(2,4-dioxo-3,4-dihydro-2H-pyrimidin-1-yl)-2-methoxy-phenyl]-vinyl}-5-methanesulfonylamino-N-(2-methoxy-ethyl)-benzamide], the EC50 in assay [1] was 10 to 100 nM; in assay [4], < 10 nM. Further, the IC50 was 10 to 100 nM in assay [2] and < 10 nM in assay [3].
With `CNC(=O)c1cc(NS(C)(=O)=O)ccc1/C=C/c1cc(-n2ccc(=O)[nH]c2=O)cc(C(C)(C)C)c1OC` [IB-L1-1.17, 2-{(E)-2-[3-tert-butyl-5-(2,4-dioxo-3,4-dihydro-2H-pyrimidin-1-yl)-2-methoxy-phenyl]-vinyl}-5-methanesulfonylamino-N-methyl-benzamide], the EC50 in assay [1] was 10 to 100 nM; in assay [4], < 10 nM. In addition, the values for the 50% inhibitory concentration (IC50) in assay [2] and in assay [3] were 10 to 100 nM and < 10 nM, respectively.
On to `COc1c(Br)cc(-n2ccc(=O)[nH]c2=O)cc1/C=C/c1ccc(NS(C)(=O)=O)cc1` [IB-L1-1.52, (E)-N-(4-(3-bromo-5-(2,4-dioxo-3,4-dihydropyrimidin-1(2H)-yl)-2-methoxystyryl)phenyl)methanesulfonamide], for which the results for the 50% effective concentration (EC50) in assay [1] (setting [5]) and in assay [4] (setting [6]) were > 1000 nM and 100 to 1000 nM, respectively. The IC50 in assay [2] and in assay [3] was 100 to 1000 nM in each case.
`COc1ccc(/C=C/c2cc(N3CCC(=O)NC3=O)cc(C(C)(C)C)c2OC)cc1` [IA-L1-1.14, (E)-1-(3-tert-butyl-4-methoxy-5-(4-methoxystyryl)phenyl)dihydropyrimidine-2,4(1H,3H)-dione]: the EC50 in assay [1] and in assay [4] was > 1000 nM in each case. Further, the IC50 in assay [2] and in assay [3] was > 1000 nM throughout.
As for `COc1c(/C=C/c2ccc(NS(C)(=O)=O)cc2C(=O)N2CCOCC2)cc(-n2ccc(=O)[nH]c2=O)cc1C(C)(C)C` [IB-L1-1.23, (E)-N-(4-(3-tert-butyl-5-(2,4-dioxo-3,4-dihydropyrimidin-1(2H)-yl)-2-methoxystyryl)-3-(morpholine-4-carbonyl)phenyl)methanesulfonamide], the EC50 was 100 to 1000 nM in assay [1] and < 10 nM in assay [4]. Also, the IC50 in assay [2] and in assay [3] was 10 to 100 nM throughout.
For the compound `COc1c(/C=C/c2ccc(NS(C)(=O)=O)cc2C(N)=O)cc(-n2ccc(=O)[nH]c2=O)cc1C(C)(C)C` [IB-L1-1.21, 2-{(E)-2-[3-tert-butyl-5-(2,4-dioxo-3,4-dihydro-2H-pyrimidin-1-yl)-2-methoxy-phenyl]-vinyl}-5-methanesulfonylamino-benzamide], the results for the concentration for a half-maximal effect (EC50) in assay [1] and in assay [4] were 10 to 100 nM and < 10 nM, respectively. Moreover, the half-maximal inhibitory concentration (IC50) was 10 to 100 nM in assay [2] and < 10 nM in assay [3].
In the case of `COCCN(C)C(=O)c1cc(NS(C)(=O)=O)ccc1/C=C/c1cc(-n2ccc(=O)[nH]c2=O)cc(C(C)(C)C)c1OC` [IB-L1-1.24, 2-{(E)-2-[3-tert-butyl-5-(2,4-dioxo-3,4-dihydro-2H-pyrimidin-1-yl)-2-methoxy-phenyl]-vinyl}-5-methanesulfonylamino-N-(2-methoxy-ethyl)-N-methyl-benzamide], the 50% effective concentration (EC50) in assay [1] was 10 to 100 nM; in assay [4] it was < 10 nM. Also, the half-inhibitory concentration (IC50) in assay [2] and in assay [3] was 10 to 100 nM in each case.
For `COc1c(/C=C/c2ccc(NS(C)(=O)=O)cc2C(=O)O)cc(-n2ccc(=O)[nH]c2=O)cc1C(C)(C)C` [IB-L1-1.4, (E)-2-(3-tert-butyl-5-(2,4-dioxo-3,4-dihydropyrimidin-1(2H)-yl)-2-methoxystyryl)-5-(methylsulfonamido)benzoic Acid], the 50% effective concentration (EC50) in assay [1] was 10 to 100 nM; in assay [4], < 10 nM. The 50% inhibitory concentration (IC50) in assay [2] and in assay [3] was < 10 nM in each case.
In the case of `COc1c(CCc2ccc(NS(C)(=O)=O)cc2)cc(-n2ccc(=O)[nH]c2=O)cc1C(C)(C)C` [IB-L5-2-1.2, N-(4-(3-tert-butyl-5-(2,4-dioxo-3,4-dihydropyrimidin-1(2H)-yl)-2-methoxyphenethyl)phenyl)methanesulfonamide], the results for the 50% effective concentration (EC50) in assay [1] (setting [5]) and in assay [4] (setting [6]) were 100 to 1000 nM and 10 to 100 nM, respectively. In addition, the IC50 in assay [2] and in assay [3] was 10 to 100 nM throughout.
`COc1c(/C=C\c2ccc(NS(C)(=O)=O)cc2)cc(-n2ccc(=O)[nH]c2=O)cc1C(C)(C)C` [IB-L1-1.34, N-(4-{(Z)-2-[3-tert-Butyl-5-(2,4-dioxo-3,4-dihydro-2H-pyrimidin-1-yl)-2-methoxy-phenyl]-vinyl}-phenyl)-methanesulfonamide]: the half-maximal effective concentration (EC50) in assay [1] is 10 to 100 nM; in assay [4] it was < 10 nM. Further, the IC50 in assay [2] and in assay [3] was > 1000 nM in each case.
For `COc1c(/C=C/c2ccc(NS(C)(=O)=O)cc2)cc(-n2cc(Cl)c(=O)[nH]c2=O)cc1C(C)(C)C` [IB-L1-1.20, N-(4-{(E)-2-[3-tert-butyl-5-(5-chloro-2,4-dioxo-3,4-dihydro-2H-pyrimidin-1-yl)-2-methoxyphenyl]-vinyl}-phenyl)-methanesulfonamide], the values for the concentration giving a half-maximal response (EC50) in assay [1] (setting [5]) and in assay [4] (setting [6]) were 10 to 100 nM and < 10 nM, respectively. Further, the IC50 in assay [2] was 10 to 100 nM; in assay [3], < 10 nM.
